Here are results for 4 compounds from ChEMBL document CHEMBL1130506, “Inhibition of the her2 tyrosine kinase and characterization of a hydrophobic site near the nucleotide binding domain” (Bioorg Med Chem Lett, 1997).

Broadly, the IC50 is the concentration at which inhibition is half-maximal. Higher therefore signals lower potency.

The target in the experiment is Receptor tyrosine-protein kinase erbB-2 (Homo sapiens, UniProt P04626). The experiment is described as follows: Inhibition of autophosphorylation of HER-2 expressed in NIH3T3 cell lines. The class given is cell-based.
Sequence of Receptor tyrosine-protein kinase erbB-2 (P04626 whole entry): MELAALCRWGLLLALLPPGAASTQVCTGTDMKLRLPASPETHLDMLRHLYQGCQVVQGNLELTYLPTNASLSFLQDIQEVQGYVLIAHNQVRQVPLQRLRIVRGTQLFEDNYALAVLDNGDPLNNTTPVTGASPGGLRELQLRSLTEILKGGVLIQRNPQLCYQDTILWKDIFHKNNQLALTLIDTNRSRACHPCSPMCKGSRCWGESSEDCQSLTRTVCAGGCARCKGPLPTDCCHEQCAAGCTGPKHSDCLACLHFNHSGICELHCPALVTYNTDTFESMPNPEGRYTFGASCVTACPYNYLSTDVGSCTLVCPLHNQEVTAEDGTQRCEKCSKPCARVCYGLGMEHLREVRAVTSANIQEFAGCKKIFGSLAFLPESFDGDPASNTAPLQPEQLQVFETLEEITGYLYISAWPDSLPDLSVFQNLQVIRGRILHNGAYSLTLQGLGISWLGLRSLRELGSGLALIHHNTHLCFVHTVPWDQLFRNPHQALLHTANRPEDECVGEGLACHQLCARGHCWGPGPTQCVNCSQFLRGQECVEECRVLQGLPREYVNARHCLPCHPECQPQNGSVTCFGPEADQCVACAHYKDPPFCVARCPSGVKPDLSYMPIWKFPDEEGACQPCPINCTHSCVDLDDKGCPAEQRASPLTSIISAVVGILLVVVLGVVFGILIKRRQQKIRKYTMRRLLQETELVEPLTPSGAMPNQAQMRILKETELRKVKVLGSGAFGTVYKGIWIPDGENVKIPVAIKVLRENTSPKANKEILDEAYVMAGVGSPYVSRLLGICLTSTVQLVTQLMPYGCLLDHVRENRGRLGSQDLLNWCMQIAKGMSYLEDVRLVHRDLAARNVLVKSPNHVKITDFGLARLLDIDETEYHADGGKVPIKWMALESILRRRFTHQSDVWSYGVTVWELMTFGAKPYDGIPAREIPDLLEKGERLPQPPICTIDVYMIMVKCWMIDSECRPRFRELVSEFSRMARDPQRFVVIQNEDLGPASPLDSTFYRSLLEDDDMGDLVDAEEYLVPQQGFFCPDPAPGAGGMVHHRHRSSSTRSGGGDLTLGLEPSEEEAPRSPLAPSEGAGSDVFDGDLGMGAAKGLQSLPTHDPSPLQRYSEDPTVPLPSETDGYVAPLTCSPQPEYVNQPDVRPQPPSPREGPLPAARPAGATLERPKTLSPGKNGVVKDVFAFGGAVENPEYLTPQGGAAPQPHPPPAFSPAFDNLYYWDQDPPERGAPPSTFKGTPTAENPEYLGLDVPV

Structures are written as SMILES.

Compound `O=C(CCCC(=O)Oc1ccc(/C=C/[N+](=O)[O-])cc1)Oc1ccccc1` came in with an IC50 of 4.4 µM.

On to `CC(C)O[C@@H]1[C@H](OC(C)C)[C@@H](COC(=O)CCCC(=O)Oc2ccc(/C=C/[N+](=O)[O-])cc2)O[C@H]1n1cnc2c(N)ncnc21`, for which the IC50 is 4.5 µM. In the case of `COc1ccc(OC(=O)CCCC(=O)Oc2ccc(/C=C/[N+](=O)[O-])cc2)cc1` it was 6.6 µM; in that of `O=C(CCCC(=O)Oc1ccc(/C=C/[N+](=O)[O-])cc1)OCc1ccco1`, 3.8 µM.
